{
  "source": "patent US20240350430A1",
  "about": "“GROWTH INHIBITOR OF METASTATIC HUMAN PROSTATE CANCER CELLS” (Watanabe Oyster Laboratory Co., Ltd., priority 2021, published 2024)",
  "format_in_all_cases": "cell-based, human",
  "key": {"DU-145 cells [1]": {"system": "DU-145 cells", "test": "Cell death of sub-confluent DU-145 cells (adherent cell counting)", "procedure": "The PC-3 and DU-145 cells (1×10^5/in 1 ml of a culture fluid per hole using a 24-hole plate) were cultured in a DMEM culture fluid (containing 10% of FBS, 1% of P/S, and 1% of fungizone) under 5% of CO2, at 37° C., for three days, and when the cells reached sub-confluence, the culture fluid was exchanged for the one containing the DHMBA (0.01, 0.1, 1, 10, 100, or 1000 μM), and the cells were cultured for 24 and 48 hours. After the culture, the cells adhering to the bottom surface of the dish were removed and counted. In another experiment, after the culture for three days, when the cells reached sub-confluence, the culture fluid was exchanged for a culture fluid containing the DHMBA (1 or 10 μM) and a caspase-3 inhibitor (10 μM), and the cells were counted after the culture for 48 hours. Further, after the culture for three days, when the cells reached sub-confluence, the culture fluid was exchanged for a culture fluid obtained by adding gemcitabine (0.1, 1, 10, 50 or 100 nM) or CH223191 (1, 10, and 25 μM) to a DMEM culture fluid containing the DHMBA (1 or 10 μM) or not containing the DHMBA, and the cells were counted after the culture for 48 hours. […]"}, "DU-145 cells [2]": {"system": "DU-145 cells", "test": "Intracellular active oxygen (ROS) production, H2DCFDA, DU-145 cells", "settings": "DHMBA 1, 10, 100, and 1000 μM, 24 hours", "procedure": "The intracellular active oxygen (reactive oxygen species: ROS) was measured using an ROS measurement kit (MAK144-1 Kit, Sigma-Aldrich) using pro-fluorescent substrate H2DCFDA. The PC-3 and DU-145 cells (the cell number of 2.5×10^4/per well, in 0.1 ml of a culture fluid per hole using a 96-hole plate) were cultured in a DMEM culture fluid (containing 10% of FBS, 1% of P/S, and 1% of fungizone) containing the DHMBA (0.1, 1, 10, 100, or 1000 μM) under 5% of CO2, at 37° C., for 24 hours. After the culture, the cells were washed with PBS, 0.1 ml and 25 μM of an H2DCFDA solution was added, and incubation was performed for 45 minutes. Afterwards, the cells were washed with PBS, and as the amount of active oxygen produced in the cells, fluorescence intensity was measured using a fluorescence measurement plate reader at a wavelength Ex/Em=485/535 nm.\nThe PC-3 and DU-145 cells (2.5×10^4/0.1 ml of a culture fluid per hole using a 96-hole plate) were cultured under 5% of CO2, at 37° C., for 24 hours in a DMEM culture fluid (containing 10% of FBS, 1% of P/S, and 1% of fungizone) containing the DHMBA (0.1, 1, 10, 100, or 1000 μM). […] After the cells were washed with PBS, a fluorescence intensity of the cells was measured using a fluorescence measurement plate reader at a wavelength Ex/Em=485/535 nm. […]"}, "PC-3 cells": {"system": "PC-3 cells", "test": "Colony formation of PC-3 cells", "settings": "DHMBA 1 or 10 μM, nine days", "procedure": "The PC-3 and DU-145 cells (1×10^3/in 2 ml of a culture fluid per hole using a six-hole plate) were cultured in a DMEM culture fluid (containing 10% of FBS, 1% of P/S, and 1% of fungizone) containing the DHMBA (1 and 10 μM) under 5% of CO2, at 37° C., for nine days. After the culture, the culture fluid was removed, the cells were washed twice with PBS, 95% of methanol (0.5 ml) was added, and the cells were fixed for 20 minutes. After the fixation, each well of a culture dish was washed four times with PBS (1 ml), and after that 0.5% of crystal violet (0.5 ml) was added, and the product was left for two hours at room temperature for staining. After the stain solution was washed to be removed, drying was performed, and after that colonies containing 50 or more cells were counted by a microscope (Olympus MTV-3, Olympus Corporation, Tokyo, Japan).\nFIG. 1(A) is a drawing in which the PC-3 cells (the cell number of 1×10^3/per well of a six-well plate) were cultured under 5% of CO2, at 37° C., for nine days in a DMEM culture fluid (containing 10% of FBS, 1% of P/S, and 1% of fungizone) containing the DHMBA (1 or 10 μM).\nFIG. 1(B) is a diagram of counting the number of colonies."}},
  "data": [
    {"smiles": "COc1c(O)cc(CO)cc1O", "note": "[DHMBA, 3,5-dihydroxy-4-methoxybenzyl alcohol]", "values": [
      {"measurement": "cell death", "setting": "DU-145 cells [1]; DHMBA 1, 10, 100, or 1000 μM, 24 and 48 hours", "value": "significantly increased"},
      {"measurement": "increase of cell death in the presence of caspase-3 inhibitor", "setting": "DU-145 cells [1]; DHMBA 1 or 10 μM with caspase-3 inhibitor 10 μM, 48 hours", "value": "not caused"},
      {"measurement": "amount of intracellular active oxygen production", "setting": "DU-145 cells [2]", "value": "significant inhibition"},
      {"measurement": "colony formation", "setting": "PC-3 cells", "value": "significantly inhibited"}
    ]}
  ]
}
